Assay [1] has as its target 5-hydroxytryptamine receptor 1D (Homo sapiens) (UniProt P28221). Description: Displacement of [3H]5-CT from human 5-HT1D receptor expressed in HEK-T cell membranes at 10 uM incubated for 90 mins under dark condition by microbeta scintillation counting method relative to control. In general terms: Loss of bound radioactivity is the signal in a displacement assay; it reports binding, not function.

The target of assay [2] is T1, 5-hydroxytryptamine receptor 1A (Homo sapiens) (UniProt P08908).
T1 sequence (whole entry): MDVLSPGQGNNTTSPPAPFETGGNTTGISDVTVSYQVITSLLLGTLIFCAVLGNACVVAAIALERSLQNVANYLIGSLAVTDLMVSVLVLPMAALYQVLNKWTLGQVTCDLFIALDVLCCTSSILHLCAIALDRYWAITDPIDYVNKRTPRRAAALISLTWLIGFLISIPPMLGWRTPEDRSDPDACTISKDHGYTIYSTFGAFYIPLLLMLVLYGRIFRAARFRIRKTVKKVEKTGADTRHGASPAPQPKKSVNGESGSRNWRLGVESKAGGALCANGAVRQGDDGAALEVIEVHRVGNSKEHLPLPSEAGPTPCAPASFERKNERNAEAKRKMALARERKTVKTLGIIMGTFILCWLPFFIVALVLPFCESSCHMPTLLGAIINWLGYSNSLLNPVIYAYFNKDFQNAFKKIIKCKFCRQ
Description: Displacement of [3H]WAY100635 from human 5-HT1AR expressed in CHO cell membranes at 10 uM incubated for 90 mins under dark condition by microbeta scintillation counting method relative to control.

Assay [3] has as its target T2, Adenosine receptor A3 (Mus musculus) (UniProt Q61618).
T2 sequence (whole entry): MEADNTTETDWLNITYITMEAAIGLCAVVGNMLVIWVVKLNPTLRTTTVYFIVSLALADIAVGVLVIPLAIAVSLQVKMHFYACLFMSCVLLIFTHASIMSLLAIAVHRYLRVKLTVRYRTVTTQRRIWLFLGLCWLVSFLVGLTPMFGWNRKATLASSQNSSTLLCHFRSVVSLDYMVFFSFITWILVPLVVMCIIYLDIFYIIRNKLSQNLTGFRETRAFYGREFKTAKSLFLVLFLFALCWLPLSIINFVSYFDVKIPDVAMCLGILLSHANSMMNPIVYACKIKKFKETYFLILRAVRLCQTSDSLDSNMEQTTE
The assay is described as follows: Agonist activity at recombinant mouse A3AR expressed in HEK293 cells assessed as inhibition of forskolin-stimulated cAMP accumulation at 10 uM after 15 mins relative to adenosine-5'-N-ethyluronamide. The format is functional, cell-based. On the technique in general: Changes in cAMP serve as a functional read-out for many G protein-coupled receptors.

The target in assay [4] is T3, 5-hydroxytryptamine receptor 3A (Homo sapiens) (UniProt P46098).
T3 sequence (whole entry): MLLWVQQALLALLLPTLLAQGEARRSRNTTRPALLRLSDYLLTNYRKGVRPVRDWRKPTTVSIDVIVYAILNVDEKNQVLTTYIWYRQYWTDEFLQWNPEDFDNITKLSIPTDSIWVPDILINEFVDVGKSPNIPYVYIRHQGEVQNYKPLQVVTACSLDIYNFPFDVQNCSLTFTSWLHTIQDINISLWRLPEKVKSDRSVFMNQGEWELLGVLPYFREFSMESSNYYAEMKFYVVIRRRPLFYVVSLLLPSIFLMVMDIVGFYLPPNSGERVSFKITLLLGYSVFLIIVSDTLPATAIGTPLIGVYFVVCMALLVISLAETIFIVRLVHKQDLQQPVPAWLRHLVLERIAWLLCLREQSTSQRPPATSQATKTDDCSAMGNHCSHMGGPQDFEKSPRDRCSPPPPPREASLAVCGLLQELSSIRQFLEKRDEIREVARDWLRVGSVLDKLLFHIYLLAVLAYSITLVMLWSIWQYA
Description: Displacement of [3H]GR65630 from human 5-HT3 receptor expressed in HEK-T cell membranes at 10 uM incubated for 90 mins under dark condition by microbeta scintillation counting method relative to control.

For assay [5], the target named is 5-hydroxytryptamine receptor 1E (Homo sapiens) (UniProt P28566). Description: Displacement of [3H]5-HT from human 5-HT1E receptor expressed in HEK cell membranes at 10 uM incubated for 90 mins under dark condition by microbeta scintillation counting method relative to control. The settings on record: HEK293.
Chain of 5-hydroxytryptamine receptor 1E (Homo sapiens) (P28566 whole entry): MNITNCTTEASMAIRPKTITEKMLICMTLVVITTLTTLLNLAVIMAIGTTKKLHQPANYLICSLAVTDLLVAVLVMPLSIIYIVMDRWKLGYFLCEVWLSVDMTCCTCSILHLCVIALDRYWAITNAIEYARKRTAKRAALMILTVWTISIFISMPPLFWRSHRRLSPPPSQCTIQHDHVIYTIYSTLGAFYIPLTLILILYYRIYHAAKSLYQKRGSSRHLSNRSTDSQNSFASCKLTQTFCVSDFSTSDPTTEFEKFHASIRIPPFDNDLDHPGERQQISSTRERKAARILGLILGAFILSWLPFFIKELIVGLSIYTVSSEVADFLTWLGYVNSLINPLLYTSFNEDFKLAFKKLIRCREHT
For assay [6], the target named is 5-hydroxytryptamine receptor 6 (Homo sapiens) (UniProt P50406). The assay is described as follows: Displacement of [3H]LSD from human 5-HT6 receptor expressed in HEK cell membranes at 10 uM incubated for 90 mins under dark condition by microbeta scintillation counting method relative to control. The note with it: HEK293.
Chain of 5-hydroxytryptamine receptor 6 (Homo sapiens) (P50406 whole entry): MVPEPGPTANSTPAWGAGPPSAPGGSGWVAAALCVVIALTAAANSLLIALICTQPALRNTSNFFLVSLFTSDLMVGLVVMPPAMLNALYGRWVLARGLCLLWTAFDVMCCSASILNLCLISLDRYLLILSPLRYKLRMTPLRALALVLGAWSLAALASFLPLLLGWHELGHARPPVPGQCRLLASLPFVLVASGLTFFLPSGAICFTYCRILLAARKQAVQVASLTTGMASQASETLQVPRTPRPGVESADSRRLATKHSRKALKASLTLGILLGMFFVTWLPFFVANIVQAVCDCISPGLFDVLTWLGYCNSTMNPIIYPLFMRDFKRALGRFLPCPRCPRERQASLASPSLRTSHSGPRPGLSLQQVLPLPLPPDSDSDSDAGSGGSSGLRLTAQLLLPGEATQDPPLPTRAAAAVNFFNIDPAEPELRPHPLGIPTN
Assay [7] addresses 5-hydroxytryptamine receptor 5A (Homo sapiens) (UniProt P47898). Description: Displacement of [3H]LSD from human 5-HT5A receptor expressed in Flp-In-CHO cell membranes incubated for 90 mins under dark condition by microbeta scintillation counting method relative to control. Further details: concentration or dose not given beside the values.
Assay [8] addresses T4, 5-hydroxytryptamine receptor 2A (Homo sapiens, UniProt P28223). The assay is described as follows: Displacement of [3H]ketanserin from human 5-HT2A receptor expressed in HEK-T cell membranes incubated for 90 mins under dark condition by microbeta scintillation counting method.
For assay [9], the target named is 5-hydroxytryptamine receptor 1B (Homo sapiens) (UniProt P28222). Description: Displacement of [3H]5-CT from human 5-HT1BR expressed in HEK cell membranes at 10 uM incubated for 90 mins under dark condition by microbeta scintillation counting method relative to control. The settings on record: HEK293.
Chain of 5-hydroxytryptamine receptor 1B (Homo sapiens) (P28222 whole entry): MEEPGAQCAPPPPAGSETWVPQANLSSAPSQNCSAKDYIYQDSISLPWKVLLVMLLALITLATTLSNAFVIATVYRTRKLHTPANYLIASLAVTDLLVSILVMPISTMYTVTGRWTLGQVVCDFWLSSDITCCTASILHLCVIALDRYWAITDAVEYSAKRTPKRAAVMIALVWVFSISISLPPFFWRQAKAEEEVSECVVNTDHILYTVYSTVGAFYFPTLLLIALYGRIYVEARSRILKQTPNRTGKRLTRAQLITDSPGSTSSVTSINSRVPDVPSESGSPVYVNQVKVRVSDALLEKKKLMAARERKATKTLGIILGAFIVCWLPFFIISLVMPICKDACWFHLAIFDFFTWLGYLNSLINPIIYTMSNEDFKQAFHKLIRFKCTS
Assay [10] addresses 5-hydroxytryptamine receptor 7 (Homo sapiens) (UniProt P34969). The assay is described as follows: Displacement of [3H]LSD from human 5-HT7A receptor expressed in HEK cell membranes at 10 uM incubated for 90 mins under dark condition by microbeta scintillation counting method relative to control. The note with it: HEK293.
In assay [11] the target is 5-hydroxytryptamine receptor 4 (Homo sapiens) (UniProt Q13639). The assay is described as follows: Displacement of [3H]GR113808 from human 5-HT4 receptor at 10 uM incubated for 90 mins under dark condition by microbeta scintillation counting method relative to control.
Chain of 5-hydroxytryptamine receptor 4 (Homo sapiens) (Q13639 whole entry): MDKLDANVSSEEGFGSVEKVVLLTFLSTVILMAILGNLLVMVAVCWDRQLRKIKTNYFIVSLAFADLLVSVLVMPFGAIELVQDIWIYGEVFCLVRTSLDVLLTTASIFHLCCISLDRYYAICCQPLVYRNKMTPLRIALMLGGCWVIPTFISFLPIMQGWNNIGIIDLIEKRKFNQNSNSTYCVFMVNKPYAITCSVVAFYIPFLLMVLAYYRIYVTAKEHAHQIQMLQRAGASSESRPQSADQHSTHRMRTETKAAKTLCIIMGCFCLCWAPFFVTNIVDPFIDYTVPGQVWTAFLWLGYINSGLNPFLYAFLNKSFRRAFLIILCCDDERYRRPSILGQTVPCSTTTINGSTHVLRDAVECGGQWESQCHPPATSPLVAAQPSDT
The target in assay [12] is T5, 5-hydroxytryptamine receptor 2C (Homo sapiens) (UniProt P28335).
T5 sequence (whole entry): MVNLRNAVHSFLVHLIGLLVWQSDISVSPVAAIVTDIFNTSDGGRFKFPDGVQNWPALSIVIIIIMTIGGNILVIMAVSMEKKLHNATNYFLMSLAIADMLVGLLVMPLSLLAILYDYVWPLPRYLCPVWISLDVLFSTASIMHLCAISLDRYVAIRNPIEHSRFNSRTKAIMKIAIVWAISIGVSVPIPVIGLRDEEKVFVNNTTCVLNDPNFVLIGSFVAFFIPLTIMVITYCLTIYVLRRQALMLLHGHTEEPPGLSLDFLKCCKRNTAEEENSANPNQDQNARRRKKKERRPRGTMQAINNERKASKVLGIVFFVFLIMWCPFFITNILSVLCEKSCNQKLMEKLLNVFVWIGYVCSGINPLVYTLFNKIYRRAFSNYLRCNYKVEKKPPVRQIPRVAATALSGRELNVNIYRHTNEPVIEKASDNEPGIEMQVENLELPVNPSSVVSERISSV
Description: Displacement of [3H]mesulergine from human 5-HT2CR expressed in Flp-In HEK cell membranes at 10 uM incubated for 90 mins under dark condition by microbeta scintillation counting method relative to control. The settings on record: HEK293.

Assay [13] in a line: Displacement of [3H]DTG from sigma2 receptor in rat PC12 cells after 90 mins by microbeta scintillation counting method. The format is cell-based. The settings on record: pc-12.
Assay [14] deals with T4, 5-hydroxytryptamine receptor 2A. The assay is described as follows: Displacement of [3H]ketanserin from human 5-HT2A receptor expressed in HEK-T cell membranes at 10 uM incubated for 90 mins under dark condition by microbeta scintillation counting method relative to control.
Assay [15] addresses 5-hydroxytryptamine receptor 2B (Homo sapiens, UniProt P41595). The note with it: HEK293, at 10 µM.
A further assay concerns the target T6, Adenosine receptor A3 (Homo sapiens, UniProt P0DMS8).
T6 sequence (P0DMS8 whole entry): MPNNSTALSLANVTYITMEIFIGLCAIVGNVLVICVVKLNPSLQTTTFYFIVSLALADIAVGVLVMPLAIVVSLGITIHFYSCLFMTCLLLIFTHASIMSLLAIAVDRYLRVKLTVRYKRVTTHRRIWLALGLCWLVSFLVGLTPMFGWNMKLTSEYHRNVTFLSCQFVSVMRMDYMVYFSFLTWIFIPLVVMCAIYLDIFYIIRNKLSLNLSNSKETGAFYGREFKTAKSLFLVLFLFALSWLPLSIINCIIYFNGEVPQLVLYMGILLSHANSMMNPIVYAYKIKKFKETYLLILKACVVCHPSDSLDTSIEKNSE
Description: Displacement of [125l]N 6-(4-amino-3-iodobenzyl)adenosine-5'-N-methyluronamide from recombinant human A3AR expressed in CHO cell membranes after 60 mins by gamma counting method.

Another assay has as its target T7, Adenosine receptor A1 (Homo sapiens, UniProt P30542).
T7 sequence (P30542 whole entry): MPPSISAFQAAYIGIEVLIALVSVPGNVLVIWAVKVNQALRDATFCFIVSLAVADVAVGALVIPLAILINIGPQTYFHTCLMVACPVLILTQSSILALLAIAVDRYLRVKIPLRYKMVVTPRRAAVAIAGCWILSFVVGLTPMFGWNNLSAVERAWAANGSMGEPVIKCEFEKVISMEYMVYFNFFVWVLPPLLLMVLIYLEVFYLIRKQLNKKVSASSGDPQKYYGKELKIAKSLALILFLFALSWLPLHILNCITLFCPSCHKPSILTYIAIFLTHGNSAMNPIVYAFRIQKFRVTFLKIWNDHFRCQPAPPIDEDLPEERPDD
The assay is described as follows: Displacement of [3H]N6-phenylisopropyladenosine from recombinant human A1AR expressed in CHO cell membranes after 60 mins by liquid scintillation counting method.

Assay [16] deals with T8, 5-hydroxytryptamine receptor 2C (Homo sapiens, UniProt P28335).
T8 sequence (P28335 whole entry): T5 sequence (whole entry)
Description: Displacement of [3H]mesulergine from human 5-HT2CR expressed in Flp-In HEK cell membranes incubated for 90 mins under dark condition by microbeta scintillation counting method. Further details: species or system HEK293.

The target of another assay is Adenosine receptor A2a (Homo sapiens, UniProt P29274). The assay is described as follows: Displacement of [3 H]2-[p-(2-carboxyethyl)phenyl-ethylamino]-5'-N-ethylcarboxamidoadenosine from recombinant human adenosine receptor A2A expressed in HEK293 cell membranes after 60 mins by liquid scintillation counting method.
Chain of Adenosine receptor A2a (P29274 whole entry): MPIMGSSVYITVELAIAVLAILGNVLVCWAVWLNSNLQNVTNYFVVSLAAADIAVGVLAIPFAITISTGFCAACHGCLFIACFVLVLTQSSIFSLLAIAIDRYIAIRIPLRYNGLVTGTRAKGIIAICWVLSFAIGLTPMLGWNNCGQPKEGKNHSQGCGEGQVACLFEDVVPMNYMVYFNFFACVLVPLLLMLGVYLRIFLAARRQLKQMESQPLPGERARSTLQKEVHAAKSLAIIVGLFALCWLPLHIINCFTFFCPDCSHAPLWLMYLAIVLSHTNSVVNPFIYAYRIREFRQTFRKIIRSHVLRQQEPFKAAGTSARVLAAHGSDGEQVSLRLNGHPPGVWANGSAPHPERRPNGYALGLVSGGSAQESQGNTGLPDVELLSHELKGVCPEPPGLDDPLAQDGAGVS

The structures appear in SMILES notation.

T4 sequence (P28223 whole entry): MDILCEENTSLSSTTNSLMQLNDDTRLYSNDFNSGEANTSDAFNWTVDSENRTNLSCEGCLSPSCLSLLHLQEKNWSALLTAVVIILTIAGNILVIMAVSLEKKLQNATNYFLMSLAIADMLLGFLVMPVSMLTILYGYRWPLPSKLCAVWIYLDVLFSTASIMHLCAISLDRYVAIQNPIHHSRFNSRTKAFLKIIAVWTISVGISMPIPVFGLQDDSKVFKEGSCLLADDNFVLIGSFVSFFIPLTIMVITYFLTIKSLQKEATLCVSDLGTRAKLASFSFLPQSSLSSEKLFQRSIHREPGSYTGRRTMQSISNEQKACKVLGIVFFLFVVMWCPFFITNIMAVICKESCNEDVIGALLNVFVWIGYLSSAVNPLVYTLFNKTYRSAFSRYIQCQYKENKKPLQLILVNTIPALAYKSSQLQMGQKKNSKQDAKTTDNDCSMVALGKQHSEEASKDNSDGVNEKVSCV
Chain of 5-hydroxytryptamine receptor 7 (Homo sapiens) (P34969 whole entry): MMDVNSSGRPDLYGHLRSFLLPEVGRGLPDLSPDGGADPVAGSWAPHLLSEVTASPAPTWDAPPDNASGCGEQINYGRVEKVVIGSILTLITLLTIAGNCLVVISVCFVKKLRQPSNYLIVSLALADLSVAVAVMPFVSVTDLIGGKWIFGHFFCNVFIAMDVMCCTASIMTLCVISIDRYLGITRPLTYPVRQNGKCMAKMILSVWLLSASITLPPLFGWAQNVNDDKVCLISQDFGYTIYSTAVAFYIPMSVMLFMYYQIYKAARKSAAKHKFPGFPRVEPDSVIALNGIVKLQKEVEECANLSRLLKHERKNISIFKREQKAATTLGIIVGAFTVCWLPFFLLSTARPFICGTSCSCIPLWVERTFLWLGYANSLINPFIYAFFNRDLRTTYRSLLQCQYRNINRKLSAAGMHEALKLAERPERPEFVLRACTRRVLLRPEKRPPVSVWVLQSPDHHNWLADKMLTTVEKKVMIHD
Chain of 5-hydroxytryptamine receptor 1D (Homo sapiens) (P28221 whole entry): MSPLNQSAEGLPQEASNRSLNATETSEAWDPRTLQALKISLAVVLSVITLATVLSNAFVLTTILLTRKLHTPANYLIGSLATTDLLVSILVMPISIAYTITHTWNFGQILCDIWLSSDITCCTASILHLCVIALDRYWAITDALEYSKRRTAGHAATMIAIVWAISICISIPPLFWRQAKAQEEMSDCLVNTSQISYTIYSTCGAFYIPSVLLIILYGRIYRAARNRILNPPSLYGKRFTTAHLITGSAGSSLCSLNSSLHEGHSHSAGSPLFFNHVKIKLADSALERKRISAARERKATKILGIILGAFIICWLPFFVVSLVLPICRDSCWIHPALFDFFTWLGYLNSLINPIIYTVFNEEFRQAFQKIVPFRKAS
Chain of 5-hydroxytryptamine receptor 5A (Homo sapiens) (P47898 whole entry): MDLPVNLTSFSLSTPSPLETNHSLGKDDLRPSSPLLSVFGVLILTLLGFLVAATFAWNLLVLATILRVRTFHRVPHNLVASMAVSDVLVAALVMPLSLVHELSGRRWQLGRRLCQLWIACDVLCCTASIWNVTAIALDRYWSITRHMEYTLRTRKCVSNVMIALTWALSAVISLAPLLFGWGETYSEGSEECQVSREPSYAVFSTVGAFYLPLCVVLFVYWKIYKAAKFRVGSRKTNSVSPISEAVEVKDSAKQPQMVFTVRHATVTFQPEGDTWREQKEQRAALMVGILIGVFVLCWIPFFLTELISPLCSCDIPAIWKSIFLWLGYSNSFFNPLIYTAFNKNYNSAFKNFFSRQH
Chain of 5-hydroxytryptamine receptor 2B (P41595 whole entry): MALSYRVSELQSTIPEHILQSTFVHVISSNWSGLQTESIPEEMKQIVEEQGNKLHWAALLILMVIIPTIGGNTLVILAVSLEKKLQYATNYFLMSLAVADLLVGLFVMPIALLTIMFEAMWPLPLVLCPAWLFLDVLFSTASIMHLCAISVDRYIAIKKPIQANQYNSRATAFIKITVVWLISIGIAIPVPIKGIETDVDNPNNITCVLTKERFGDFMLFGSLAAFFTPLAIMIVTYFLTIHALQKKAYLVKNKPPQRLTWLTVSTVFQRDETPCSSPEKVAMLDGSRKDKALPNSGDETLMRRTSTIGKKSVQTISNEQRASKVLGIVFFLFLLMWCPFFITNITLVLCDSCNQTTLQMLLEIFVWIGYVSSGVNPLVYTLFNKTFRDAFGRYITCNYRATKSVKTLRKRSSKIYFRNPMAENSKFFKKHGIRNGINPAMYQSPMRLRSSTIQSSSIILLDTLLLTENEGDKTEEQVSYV

Take `CCNC(=O)[C@H]1O[C@@H](n2cnc3c(N)ncnc32)[C@H](O)[C@@H]1O` [NECA]: the inhibition in assay [1], in assay [2], in assay [4], in assay [5], in assay [6] and in assay [7] was below 50% throughout. The inhibition in assay [9], in assay [10] and in [11] was below 50% in each case. In addition, the Imax in [3] worked out at 100%. Also, in assay [8], the inhibition constant (Ki) (commonly the equilibrium dissociation constant of an inhibitor or competing ligand from its target) was above 10000 nM.
As to `Nc1ncnc2c1ncn2[C@@H]1O[C@H](C(=O)NC2CC2)[C@@H](O)[C@H]1O`, the inhibition (in general, the share of the control response that was lost under treatment) in assay [1] was below 50%; in assay [12], below 10%; in [2], below 50%; in assay [4], below 50%; in assay [5] it was below 50%; in assay [6] it was below 50%. Further, the inhibition in assay [7] is below 50%; in assay [9] it was below 50%; in [10] it was below 50%; in assay [11], below 50%; in assay [14], below 10%; in assay [15], below 10%. The Ki in assay [8] was above 10000 nM; in [13] it was 1400 nM.
Take `CNc1nc(Cl)nc2c1ncn2[C@H]1[C@H](O)[C@H](O)[C@]2(CO)C[C@H]12`: the inhibition in [1] is below 50%; in assay [12], above 50%; in assay [2], below 50%; in [4], below 50%; in assay [5] it was below 50%; in [6] it was below 50%. Further, the inhibition in [7] is below 50%; in assay [9] it was below 50%; in [10] it was below 50%; in [11] it was below 50%; in assay [14], below 10%. For the same compound, the Ki was above 10000 nM in assay [8] and 2220 nM in [13].
As to `CCC(CC)Nc1nc(Cl)nc2c1ncn2[C@H]1[C@H](O)[C@H](O)[C@]2(CO)C[C@H]12`, the inhibitory constant (Ki) at Adenosine receptor A3 is 1200 nM; at Adenosine receptor A1, 112 nM; in assay [16], 703 nM; at Adenosine receptor A2a, 1750 nM; in assay [8], above 10000 nM. Besides, the inhibition in assay [1] is below 50%; in assay [12], above 50%; in assay [2], below 50%; in assay [4], below 50%; in assay [5], below 50%; in assay [6], below 50%. In addition, the inhibition in [7] is below 50%; in [9], below 50%; in assay [10], below 50%; in assay [11], below 50%; in [14] it was 12%.
As for `OC[C@@]12C[C@@H]1[C@@H](n1cnc3c(N[C@H](C4CCC4)C4CC4)nc(Cl)nc31)[C@H](O)[C@@H]2O`, the inhibition in assay [1] was below 50%; in [12], above 50%; in assay [2] it was below 50%; in assay [4], below 50%; in assay [5], below 50%; in assay [6] it was below 50%. Also, the inhibition in [7] was below 50%; in [9], below 50%; in assay [10], below 50%; in assay [11] it was below 50%; in [14], below 10%. For the same compound, the Ki was 298 nM on Adenosine receptor A1, 298 nM in assay [16], 2690 nM at Adenosine receptor A2a and above 10000 nM in assay [8].
`OC[C@@]12C[C@@H]1[C@@H](n1cnc3c(N[C@@H](C4CCC4)C4CC4)nc(Cl)nc31)[C@H](O)[C@@H]2O`: the inhibition is below 50% in [1]; above 50% in assay [12]; below 50% in [2]; below 50% in assay [4]; below 50% in assay [5]; below 50% in assay [6]. In addition, the inhibition in assay [7] was below 50%; in assay [9], below 50%; in assay [10], below 50%; in [11], below 50%; in [14], below 10%. In addition, the inhibitory constant (Ki) at Adenosine receptor A1 was 144 nM; in [16] it was 270 nM; on Adenosine receptor A2a, 3940 nM; in [8] it was above 10000 nM.

The values are drawn from ChEMBL document CHEMBL3862033 (J Med Chem, 2016).
